Test results as given in patent US20060287383A1, “Substance exhibiting antidepressant property” (priority 2003, published 2006).
Counter-ions that a name gives are not always drawn.

Columns and labels:
[1] = system: white outbred male rats; experiment: Porsolt method of behavioral despair (helplessness); assay type: in vivo
Source text: The Porsolt method of behavioral despair (helplessness) (Porsolt R. D., Anton G., Blavet N. et al. Behavioral despair in rats: a new model sensitive to antidepressant treatment//Europ. J. Pharmacol. 1978—v. 47.—p. 379-391) is the basic model for assessing antidepressants (Andreeva N. I., ? H. ? . the Methodical Guidelines for Studying Antidepressant Activity of Pharmaceuticals,//Guidebook for Experimental (Preclinical) Studies of New Pharmaceuticals of the RF Ministry of Public Health.—ZAO IIA “Remedium”.—2000.—p. 121-125). The studies have been conducted on white outbred male rats having the weight of 230-250 grams. The animals have been put into a water reservoir having 40 cm in diameter and the depth of 60 cm, for the rats cannot either run out of the reservoir or find a support in it. The water temperature has been maintained at the level of 25° C., the experiments have been conducted within the period from 12 A.M. to 4 P.M. After coming into water the animals begin displaying energetic motion activity aimed at finding a way out of the aversive (troublesome) situation, but then they stop their attempts and take a typical position in the water, while being fully immovable or making insignificant motions necessary for keeping their heads over the water surface. The depressive condition intensity rate in this test is the duration of immobility. The immobility condition has been assessed visually, determining its duration within 10 minutes of the observations. Substances having antidepressant activity alleviate this condition by reducing the immobility time.
The studies have been conducted using animals divided into groups. The animals from the experimental groups have received single doses of phenotropyl in the amounts of 25, 50 and 100 mg/kg or the standard amitriptyline medication in the amount of 10 mg/kg (ampoule solution made by Spofa, the Czech Republic) in the volume corresponding to the dose. The animals from the control group have received distilled water in the same dosage. All the substances have been given intragastrically 40 minutes before the an experiment.

[2] = system: white outbred male rats; experiment: involuntary swimming in a reservoir with freely moving wheels according to Nomura; assay type: in vivo
Procedure: The method of involuntary swimming in a reservoir with freely moving wheels (Nomura S., Shimizu J., Kinjo M. et al. A new behavioral test for antidepressant drugs//Eur. J. Pharmacol.—1982.—v. 83.—N 34.—p. 171-175) is widely used for assessing the action of antidepressant agents. The installation is a reservoir having dimensions of 64×30×42 cm and divided into four equal sections where wheels are located. The reservoir is filled with water at the temperature of 25° C., coming to the medium line of the wheels. The studies have been conducted with white outbred male rats having the weight from 230 to 250 grams. The rats have been put into each section in the position where their heads are opposite to the wheels, and then the wheel speed has been recorded for 10 minutes with the use of electromechanical counters. The number of wheel revolutions made by the rat for 10 minutes is recorded.
This study has been conducted with animals from different groups. The rats from the experimental groups have received single doses of phenotropyl in the amounts of 25, 50 and 100 mg/kg or the standard amitriptyline medication in the amount of 10 mg/kg (ampoule solution made by Spofa, the Czech Republic) in the volume corresponding to the dosage. The animals from the control group have received distilled water in the same dosage. All the substances have been given intragastrically 40 minutes before the an experiment.

[3] = system: patients having depressive illnesses; experiment: clinical study, Hamilton rating scale for depressive illness; assay type: in vivo, human; details: 75 mg daily
Procedure: The Hamilton rating scale for primary depressive illness (Hamilton M. Development of a rating scale for primary depressive illness//Br J Soc Clin Psychol. 1967 December;6(4):278-96) is one of the most widely used scales for assessing depression in the clinical practice.
The material for clinical studies has comprised two homogenous groups of patients having depressive illnesses (40 persons) aged 20-42, out of which 20 patients have taken amitriptyline in the daily dose of 75 mg (25 mg three times a day), and 20 patients have taken phenotropyl in the daily dose of 100 mg as a single dose in the morning time. For a comparative study of the medications antidepressant activity the patients have been enlisted for the study according to the following criteria: the informed consent is available, a light or moderate depressive episode (F32.0 ? F32.1 according to MCB-10) is present, the total score under the Hamilton rating scale is not lower than 18, no contraindications to taking amitriptyline and phenotropyl. The patients have been relatively uniformly assigned to the said groups according to meaningful factors, such as sex and age, time for which the condition exists and syndrome characteristics. The condition existence time varied from 1 to 2 years. The therapy efficiency has been assessed on the basis of a degree of reduction of the total score under the Hamilton scale, namely: full effect—reduction by more than 50%; partial reduction—from 25 to 50%; no effect—reduction by less than 25%. The condition of the patients has been assessed during the background studies and at each 7th day of the therapy for the whole 6 weeks of the therapy. In total, seven examinations have been carried out. The comparative data on the general efficiency pf the medications, as given in Table 5, evidence a rather quick reduction of the depressive illness psychopathological symptoms in the process of administering phenotropyl and amitriptyline. However, the antidepressant effect of phenotropyl has been more pronounced on the 7th and 14th days of the therapy. The full reduction has been attained in 25% and 40% of the patients, respectively. […] From the 28th day of the therapy the number of the patients experiencing the maximum effect has not been changed either on the 35th or the 42nd days of the therapy. Out of 20% of the patients experiencing a partial reduction of the depressive symptoms, 15% have been patients with the reduction from 25% to 50%, and 5%—patients with the reduction by less than 25%.

[4] = system: white outbred male mice; experiment: haloperidol catalepsy method; assay type: in vivo; details: haloperidol 0.5 mg/kg intraperitoneally alone
Procedure: As one of the indicators for antidepressant antagonism in relation to depriming effects of neuroleptics, neuroleptic-induced catalepsy is used. The maintenance of catalepsy in animals is assessed by their ability to maintain set or unusual poses for a definite time (Morpurgo C. Effects of antiparkinson drugs on phenothiazine induced catatonia reaction//Arch. Int Pharmacodyn., 1962, vol. 137 No 1-2, p. 84-94). Reduction or prevention of catalepsy is one of the factors showing antidepressant activity in studied substances.
The studies have been conducted with white outbred male mice having the weight from 18 to 24 grams. Haloperidol is introduced intraperitoneally in a single dose of 0.5 mg/kg. Phenotropyl has been introduced intraperitoneally in doses of 50, 100 and 200 mg/kg in 15 minutes after the introduction of haloperidol. The catalepsy intensity has been assessed by time (in seconds) of keeping the animals in an uncomfortable pose where their front legs have been put onto a bar having the height of 4 cm, in 60, 120 and 180 minutes after introducing the said medications. It is shown in Table 4 that phenotropyl clearly antagonizes haloperidol-induced catalepsy.

[5] = system: white outbred male rats; experiment: reserpine depression method according to Bernardi; assay type: in vivo; details: reserpine 2.5 mg/kg intraperitoneally alone
Source text: The method of reserpine depression according to Bernardi (Bernardi D., Paglialunga S., Jori A. Peripheral and central components in the hyperthermic effect of desipramine in rezerpinized rats//J. Pharm. Pharmacol., 1968, vol. 20, p. 204-209) is one of the basic models for assessing antidepressants in studies of new pharmaceuticals. The studies have been conducted with white outbred male rats having the weight from 200 to 240 grams. Reserpine has been introduced intraperitoneally, as a single dose of 2.5 mg/kg 2 hours before the introduction of phenotropyl (intraperitoneally, single doses of 25, 50, 100 and 200 mg/kg) and 3 hours before starting the study. The animals from the control group have received intraperitoneally distilled water only in the same volumes as the animals from the experimental groups. The antidepressant activity of phenotropyl has been assessed by its effect on sedation (suppression of the orientation and motion activity), intensity of ptosis and diarrhea, which have been caused by reserpine in the rats.
The orientation and motion activity of the animals has been studied for three minutes in a special activity meter (Varimex). The intensity of ptosis and diarrhea has been assessed on the standard 4-point scale (Mashkovsky M. D., Andreeva N. I., Polezhaeva A. I. Pharmacology of Antidepressants. Moscow, Medicine Publishers, 1983, p. 194-199).

In the case of `CN(C)CCC=C1c2ccccc2CCc2ccccc21` [Amitriptyline, 5-(3-dimethylaminopropylidene)-10,11-dihydrodibenzocycloheptine hydrochloride, reference compound], the “effect on immobility time” value ([1]; 10 mg/kg intragastrically) is reported as “reliably reduced the immobility time”, the Time of immobility ([1]; single dose 10 mg/kg intragastrically 40 minutes before, 10 minutes observation) is reported as 166.1 ± 46.5 s and the “effect on number of wheel revolutions” value ([2]; 10 mg/kg intragastrically) is reported as “reliably increasing the number of wheel revolutions”. For the same compound, the “Number of wheel revolutions for 10 minutes” value ([2]; single dose 10 mg/kg intragastrically 40 minutes before) was 115.1 ± 24.6, the “patients (%) with reduction of total Hamilton score 25-49” value ([3]; 7th therapy day) was 20% and the “patients (%) with reduction of total Hamilton score <25” value ([3]; 7th therapy day) was 80%. The “patients (%) with reduction of total Hamilton score ≧50” value ([3]; 7th therapy day) was 0%, the “patients (n) with reduction of total Hamilton score 25-49” value ([3]; 7th therapy day) was 4 and the “patients (n) with reduction of total Hamilton score <25” value ([3]; 7th therapy day) was 16. The “patients (n) with reduction of total Hamilton score ≧50” value ([3]; 7th therapy day) was 0, the “patients (%) with reduction of total Hamilton score 25-49” value ([3]; 14th therapy day) was 30% and the “patients (%) with reduction of total Hamilton score <25” value ([3]; 14th therapy day) was 50%. For the same compound, the “patients (%) with reduction of total Hamilton score ≧50” value ([3]; 14th therapy day) was 20%, the “patients (n) with reduction of total Hamilton score 25-49” value ([3]; 14th therapy day) was 6 and the “patients (n) with reduction of total Hamilton score <25” value ([3]; 14th therapy day) was 10. The “patients (n) with reduction of total Hamilton score ≧50” value ([3]; 14th therapy day) was 4, the “patients (%) with reduction of total Hamilton score 25-49” value ([3]; 21st therapy day) was 30% and the “patients (%) with reduction of total Hamilton score <25” value ([3]; 21st therapy day) was 30%. The “patients (%) with reduction of total Hamilton score ≧50” value ([3]; 21st therapy day) was 40%, the “patients (n) with reduction of total Hamilton score 25-49” value ([3]; 21st therapy day) was 6 and the “patients (n) with reduction of total Hamilton score <25” value ([3]; 21st therapy day) was 6. For the same compound, the “patients (n) with reduction of total Hamilton score ≧50” value ([3]; 21st therapy day) was 8, the “patients (%) with reduction of total Hamilton score 25-49” value ([3]; 28th therapy day) was 10% and the “patients (%) with reduction of total Hamilton score <25” value ([3]; 28th therapy day) was 20%. For the same compound, the “patients (%) with reduction of total Hamilton score ≧50” value ([3]; 28th therapy day) was 70%, the “patients (n) with reduction of total Hamilton score 25-49” value ([3]; 28th therapy day) was 2 and the “patients (n) with reduction of total Hamilton score <25” value ([3]; 28th therapy day) was 4. The “patients (n) with reduction of total Hamilton score ≧50” value ([3]; 28th therapy day) was 14, the “patients (%) with reduction of total Hamilton score 25-49” value ([3]; 35th therapy day) was 5% and the “patients (%) with reduction of total Hamilton score <25” value ([3]; 35th therapy day) was 10%. The “patients (%) with reduction of total Hamilton score ≧50” value ([3]; 35th therapy day) was 85%, the “patients (n) with reduction of total Hamilton score 25-49” value ([3]; 35th therapy day) was 1 and the “patients (n) with reduction of total Hamilton score <25” value ([3]; 35th therapy day) was 2. The “patients (n) with reduction of total Hamilton score ≧50” value ([3]; 35th therapy day) was 17, the “patients (%) with reduction of total Hamilton score 25-49” value ([3]; 42nd therapy day) was 5% and the “patients (%) with reduction of total Hamilton score <25” value ([3]; 42nd therapy day) was 10%. For the same compound, the “patients (%) with reduction of total Hamilton score ≧50” value ([3]; 42nd therapy day) was 85%, the “patients (n) with reduction of total Hamilton score 25-49” value ([3]; 42nd therapy day) was 1 and the “patients (n) with reduction of total Hamilton score <25” value ([3]; 42nd therapy day) was 2. The “patients (n) with reduction of total Hamilton score ≧50” value ([3]; 42nd therapy day) was 17.
With `O=C(CCCN1CCC(O)(c2ccc(Cl)cc2)CC1)c1ccc(F)cc1` [Haloperidol, reference compound] the “Catalepsy” value ([4]; 60 minutes) was 1.3 ± 0.8 s, the “Catalepsy” value ([4]; 120 minutes) was 27.5 ± 8.5 s and the “Catalepsy” value ([4]; 180 minutes) was 63.4 ± 2.8 s.
For `COC(=O)[C@H]1[C@H]2C[C@@H]3c4[nH]c5cc(OC)ccc5c4CCN3C[C@H]2C[C@@H](OC(=O)c2cc(OC)c(OC)c(OC)c2)[C@@H]1OC` [Reserpine, reference compound], the Diarrhea ([5]; 4-point scale) was 2.4 ± 0.1 points, the Ptosis ([5]; 3 hours before study, 4-point scale) was 3.6 ± 0.2 points and the “Number of pulses in activity meter” value ([5]; three minutes, Varimex) was 11.8 ± 2.2.
